According to patent publication US8557862B2, “Synergistic antimicrobial composition” (Dow Global Technologies LLC, priority 2009, dated 2013):

Tested on: oil field isolated anaerobic SRB consortium
Assay: Biocidal efficacy (MBC for complete bacteria kill) against sulfate reducing bacteria
Format: cell-based, Sulfate Reducing Bacteria (SRB)
Settings: minimum tested biocide concentration for complete bacteria kill, alone or in the blend, 40° C., 24 hour, anaerobic salt solution, 10^6 to 10^7 CFU/mL
Protocol: Inside an anaerobic chamber (BACTRON III), a deaerated sterile salt solution (3.1183 g of NaCl, […] of NaHCO3, 47.70 mg of KCl, 72.00 mg of CaCl2, 54.49 mg of MgSO4, 172.28 mg of Na2SO4, 43.92 mg of Na2CO3 in 1 L water) was contaminated with an oil field isolated anaerobic SRB consortium at final bacterial concentrations of 10^6 to 10^7 CFU/mL. The aliquots of this contaminated water were then treated with glutaraldehyde and DXN, or the glutaraldehyde/DXN combination at different active concentration levels. After the mixtures were incubated at 40° C. for 24 hour, the biocidal efficacy was determined by minimum tested biocide concentration for complete bacteria kill in the aliquots (MBC). Table 1 summarizes the efficacy of each biocide and their blends, and the Synergy Index* of each combination.

| SMILES | MBC (active ppm) glut (glutaraldehyde concentration) [active ppm] | MBC (active ppm) DXN (DXN concentration) [active ppm] |
| --- | --- | --- |
| O=CCCCC=O [1:0, glutaraldehyde] | 2.63 | – |
| CC(=O)OC1CC(C)OC(C)O1 (centres unmarked) [0:1, 2,6-dimethyl-1,3-dioxan-4-yl acetate] | – | 333.33 |
